In paper PMC11212140, “Molecular Bidents with Two Electrophilic Warheads as a New Pharmacological Modality” (ACS Central Science, 2024):

What was measured:
MKK7 = target: T1, MKK7 (Homo sapiens, UniProt O14733); assay: MKK7 binding, KdELECT assays (DiscoverX); settings: KdELECT
T1 construct: purchased DiscoverX
T1 sequence (O14733 1-419): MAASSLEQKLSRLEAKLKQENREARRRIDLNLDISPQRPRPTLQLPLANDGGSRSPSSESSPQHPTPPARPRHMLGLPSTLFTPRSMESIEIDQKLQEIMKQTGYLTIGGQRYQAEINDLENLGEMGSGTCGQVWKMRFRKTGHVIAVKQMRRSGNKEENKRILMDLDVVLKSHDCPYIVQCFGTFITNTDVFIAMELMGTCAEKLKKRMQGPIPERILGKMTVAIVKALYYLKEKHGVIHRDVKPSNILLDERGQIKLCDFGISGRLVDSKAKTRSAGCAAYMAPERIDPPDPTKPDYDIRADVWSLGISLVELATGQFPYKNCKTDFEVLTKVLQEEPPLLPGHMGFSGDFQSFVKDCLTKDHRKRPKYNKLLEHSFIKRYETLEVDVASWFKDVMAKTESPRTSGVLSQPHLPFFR
Text: Figure 2 ZNL-8162 is a molecular bident for MKK7. (A) Compound structures for MKK7-targeting molecular bident (ZNL-8162) and its relatives lacking one or both cysteine-reactive groups. (B) Covalent modeling for ZNL-8162 engagement of MKK7(PDB: 6YG3). (C) MS/MS spectrum of ZNL-8162 covalently modifying Cys218 and Cys276 of MKK7. Red and yellow circles indicate ions of type y for sequences marked (1) and (2), respectively. Blue circles indicate ions of b for sequence (1). *, carbamidomethyl cysteine, Δ, oxidized methionine. (D) MKK7 binding data were obtained from KdELECT assays (DiscoverX). Data are presented as mean ± s.d. of n = 2 biologically independent samples.
Table S2. […]

EGFR = tested on: T2, EGFR; assay: Cellular target engagement assays (competitive pulldown); format: cell-based; settings: EGFR^L858R Ba/F3 cells, 6 h pretreatment
T2 construct: expressed in transfected cells; host or cells: Ba/F3 (murine pro-B cells transduced with an EGFR mutant expression vector)
Protocol: Figure 4 ZNL-0056 covalently engages Cys775 and Cys797 in EGFR Ba/F3 cells. (A) Carton of competition EGFR pulldown strategy to test covalent EGFR engagement in cells. (B) Competitive pulldown assay in EGFR^L858R Ba/F3 cells treated with ZNL-0056 at the indicated concentrations for 6 h. Cell lysates were incubated with bio-osimertinib. (C) Competitive pulldown assay in EGFR^L858R Ba/F3 cells treated with ZNL-0056 at the indicated concentrations for 6 h. Cell lysates were incubated with bio-ZNL-0013, which competes for the binding pocket of the target kinase. (D) Competitive pulldown assay in EGFR^L858R/C797S Ba/F3 cells treated with ZNL-0056 at the indicated concentrations for 6 h. Cell lysates were incubated with bio-ZNL-0013, which competes for the binding pocket of the target kinase. Western blotting showing the pulldown (PD) or input (total lysate) of EGFR. […]
treatment. Cell viability was determined by using CellTiter-Glo (Promega #G7571) according to the manufacturer’s instructions, measuring luminescence using an Envision plate-reader (PerkinElmer Inc.). […]
After 6 hours treatment, cells were pelleted, washed with PBS once and lysed with IP lysis buffer (25mMTris-HCl pH 7.4, 150mM NaCl, 1 mM EDTA, 1% NP-40 and 5% glycerol) (Thermo Fisher Scientific, Cat#87788) containing protease/phosphatase inhibitor cocktail (Roche). The protein concentrations were measured by BCA analysis (Pierce). […]

ITK = ITK (Homo sapiens, UniProt Q08881); assay: Z'-LYTE biochemical assay; settings: read-out: IC50 (nM) against ITK
ITK, sequence (Q08881 whole entry): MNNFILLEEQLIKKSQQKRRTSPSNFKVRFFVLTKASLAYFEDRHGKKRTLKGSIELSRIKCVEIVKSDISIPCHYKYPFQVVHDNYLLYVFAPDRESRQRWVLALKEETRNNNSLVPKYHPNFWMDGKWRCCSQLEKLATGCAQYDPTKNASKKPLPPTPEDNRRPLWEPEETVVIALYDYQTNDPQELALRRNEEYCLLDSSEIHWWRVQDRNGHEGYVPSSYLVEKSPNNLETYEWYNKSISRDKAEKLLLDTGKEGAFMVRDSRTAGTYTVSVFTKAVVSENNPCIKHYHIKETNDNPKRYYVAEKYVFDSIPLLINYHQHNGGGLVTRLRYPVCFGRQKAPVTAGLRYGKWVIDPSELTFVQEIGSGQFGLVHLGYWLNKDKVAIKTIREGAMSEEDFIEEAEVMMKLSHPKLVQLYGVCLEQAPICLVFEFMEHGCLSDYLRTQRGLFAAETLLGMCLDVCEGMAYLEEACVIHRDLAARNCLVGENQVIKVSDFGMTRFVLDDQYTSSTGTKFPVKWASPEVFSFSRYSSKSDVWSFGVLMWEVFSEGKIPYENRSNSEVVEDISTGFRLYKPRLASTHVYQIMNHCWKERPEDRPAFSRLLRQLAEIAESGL
Text: (§1) Table S2. Biochemical activities against a panel of kinase targets […]
(§2) aIC50 (nM) against EGFR L858R, BTK, JAK3, ITK and BLK were obtained with Z’-LYTE biochemical assay. bIC50 (nM) against MEK5 was obtained with LanthaScreen Binding activity assay. c Kd (nM) of MKK7 were obtained from KdELECT assays (DiscoverX). […]
(§3) (1 picture or pasted object on this page, not shown here)

BTK = BTK (Homo sapiens, UniProt Q06187); assay: Z'-LYTE biochemical assay; settings: read-out: IC50 (nM) against BTK
BTK, sequence (Q06187 whole entry): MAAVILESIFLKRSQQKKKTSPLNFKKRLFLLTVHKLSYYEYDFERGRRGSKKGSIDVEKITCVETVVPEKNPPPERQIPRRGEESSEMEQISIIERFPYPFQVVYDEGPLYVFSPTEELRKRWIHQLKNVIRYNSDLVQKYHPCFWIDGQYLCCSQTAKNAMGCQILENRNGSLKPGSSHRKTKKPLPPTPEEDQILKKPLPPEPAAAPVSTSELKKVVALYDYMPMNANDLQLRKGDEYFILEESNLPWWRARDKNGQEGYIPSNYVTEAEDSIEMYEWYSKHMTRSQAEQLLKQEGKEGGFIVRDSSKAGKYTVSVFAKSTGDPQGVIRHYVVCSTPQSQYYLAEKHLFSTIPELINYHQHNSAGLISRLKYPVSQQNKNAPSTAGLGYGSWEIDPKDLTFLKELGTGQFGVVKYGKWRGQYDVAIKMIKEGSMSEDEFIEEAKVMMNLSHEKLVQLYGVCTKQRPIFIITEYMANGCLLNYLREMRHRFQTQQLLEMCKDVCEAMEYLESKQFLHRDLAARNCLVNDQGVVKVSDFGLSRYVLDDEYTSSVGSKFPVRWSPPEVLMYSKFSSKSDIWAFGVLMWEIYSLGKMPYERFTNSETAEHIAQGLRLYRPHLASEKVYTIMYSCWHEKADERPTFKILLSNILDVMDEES
Text: as §1, §2, §3

JAK3 = JAK3 (Homo sapiens, UniProt P52333); assay: Z'-LYTE biochemical assay; settings: read-out: IC50 (nM) against JAK3
JAK3, sequence (P52333 whole entry): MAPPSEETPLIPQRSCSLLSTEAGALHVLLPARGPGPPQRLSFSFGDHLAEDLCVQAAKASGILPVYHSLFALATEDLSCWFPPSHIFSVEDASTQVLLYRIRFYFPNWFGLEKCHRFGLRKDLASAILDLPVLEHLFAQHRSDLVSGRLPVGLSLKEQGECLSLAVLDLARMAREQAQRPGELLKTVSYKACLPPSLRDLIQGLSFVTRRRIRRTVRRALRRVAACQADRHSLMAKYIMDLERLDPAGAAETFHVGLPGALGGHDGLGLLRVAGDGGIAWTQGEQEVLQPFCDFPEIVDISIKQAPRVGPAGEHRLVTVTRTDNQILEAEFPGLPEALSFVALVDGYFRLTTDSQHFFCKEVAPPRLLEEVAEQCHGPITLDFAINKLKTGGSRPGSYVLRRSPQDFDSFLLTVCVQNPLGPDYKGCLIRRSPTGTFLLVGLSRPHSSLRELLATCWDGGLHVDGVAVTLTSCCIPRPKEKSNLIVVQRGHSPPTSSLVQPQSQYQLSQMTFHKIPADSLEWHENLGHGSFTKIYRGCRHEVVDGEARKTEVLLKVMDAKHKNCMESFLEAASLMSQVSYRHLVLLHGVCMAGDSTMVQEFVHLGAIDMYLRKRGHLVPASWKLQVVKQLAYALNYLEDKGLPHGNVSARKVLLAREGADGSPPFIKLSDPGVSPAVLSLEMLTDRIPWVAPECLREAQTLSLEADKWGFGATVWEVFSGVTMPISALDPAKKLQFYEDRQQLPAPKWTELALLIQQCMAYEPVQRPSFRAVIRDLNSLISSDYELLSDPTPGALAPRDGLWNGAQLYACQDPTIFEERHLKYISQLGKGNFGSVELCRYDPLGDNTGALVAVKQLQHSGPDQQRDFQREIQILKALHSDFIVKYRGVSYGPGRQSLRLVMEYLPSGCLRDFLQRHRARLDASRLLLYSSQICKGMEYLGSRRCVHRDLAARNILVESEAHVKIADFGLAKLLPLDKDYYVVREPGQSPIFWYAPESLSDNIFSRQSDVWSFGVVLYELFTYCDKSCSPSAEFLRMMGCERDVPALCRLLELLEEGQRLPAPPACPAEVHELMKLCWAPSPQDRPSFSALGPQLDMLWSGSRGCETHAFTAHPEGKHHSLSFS
Text: as §1, §2, §3

EGFR L858R = EGFR L858R (Homo sapiens, UniProt P00533, L858R); assay: Z'-LYTE biochemical assay; settings: read-out: IC50 (nM) against EGFR L858R
EGFR L858R, sequence (P00533 25-1210 L858R): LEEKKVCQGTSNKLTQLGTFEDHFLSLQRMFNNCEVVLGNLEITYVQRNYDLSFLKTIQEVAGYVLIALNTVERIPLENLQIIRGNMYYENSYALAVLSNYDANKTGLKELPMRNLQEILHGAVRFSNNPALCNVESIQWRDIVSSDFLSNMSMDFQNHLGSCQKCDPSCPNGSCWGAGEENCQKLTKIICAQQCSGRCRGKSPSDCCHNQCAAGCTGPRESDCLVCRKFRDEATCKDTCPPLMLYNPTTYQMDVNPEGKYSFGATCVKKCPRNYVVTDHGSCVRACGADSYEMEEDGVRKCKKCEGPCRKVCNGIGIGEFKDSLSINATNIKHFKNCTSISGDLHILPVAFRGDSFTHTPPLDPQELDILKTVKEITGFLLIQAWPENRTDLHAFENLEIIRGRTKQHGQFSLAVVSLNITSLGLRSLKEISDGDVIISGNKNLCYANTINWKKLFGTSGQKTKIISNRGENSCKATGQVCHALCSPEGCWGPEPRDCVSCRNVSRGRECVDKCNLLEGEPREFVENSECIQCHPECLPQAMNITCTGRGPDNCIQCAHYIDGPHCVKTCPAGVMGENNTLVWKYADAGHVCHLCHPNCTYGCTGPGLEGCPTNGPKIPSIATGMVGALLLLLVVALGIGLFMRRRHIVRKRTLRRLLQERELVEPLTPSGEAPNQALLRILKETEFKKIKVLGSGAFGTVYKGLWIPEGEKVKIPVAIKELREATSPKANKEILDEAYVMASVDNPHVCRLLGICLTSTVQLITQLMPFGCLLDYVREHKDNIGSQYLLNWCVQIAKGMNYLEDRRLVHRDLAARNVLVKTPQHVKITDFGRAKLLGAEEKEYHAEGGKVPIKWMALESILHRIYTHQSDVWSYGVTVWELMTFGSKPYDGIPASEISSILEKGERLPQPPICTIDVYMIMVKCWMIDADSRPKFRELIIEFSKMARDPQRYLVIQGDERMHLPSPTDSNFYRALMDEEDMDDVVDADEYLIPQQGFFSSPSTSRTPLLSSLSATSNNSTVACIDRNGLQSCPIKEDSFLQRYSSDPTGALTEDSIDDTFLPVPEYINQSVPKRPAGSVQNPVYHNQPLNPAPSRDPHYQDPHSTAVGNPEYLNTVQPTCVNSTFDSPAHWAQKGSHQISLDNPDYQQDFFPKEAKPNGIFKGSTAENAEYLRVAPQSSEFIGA
Text: as §1, §2, §3

MEK5 = MEK5 (Homo sapiens, UniProt Q13163); assay: LanthaScreen Binding activity assay; settings: read-out: IC50 (nM) against MEK5
MEK5, sequence (Q13163 whole entry, species assumed): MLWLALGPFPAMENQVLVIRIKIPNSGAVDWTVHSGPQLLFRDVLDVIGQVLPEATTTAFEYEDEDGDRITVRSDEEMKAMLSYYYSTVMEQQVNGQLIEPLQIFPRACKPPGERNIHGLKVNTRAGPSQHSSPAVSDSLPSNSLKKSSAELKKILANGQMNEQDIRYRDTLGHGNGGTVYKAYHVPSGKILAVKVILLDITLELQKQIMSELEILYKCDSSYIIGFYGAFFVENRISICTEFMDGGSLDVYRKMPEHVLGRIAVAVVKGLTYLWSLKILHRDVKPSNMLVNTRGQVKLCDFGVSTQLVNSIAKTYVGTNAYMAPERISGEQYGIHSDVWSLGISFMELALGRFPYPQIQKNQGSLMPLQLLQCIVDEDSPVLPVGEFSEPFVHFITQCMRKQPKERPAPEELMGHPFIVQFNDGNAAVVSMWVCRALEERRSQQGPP
Text: as §1, §2, §3

`C=CC(=O)Nc1cc(C(=O)Nc2nc3cccc(C)c3n2[C@@H]2CCCCN(C(=O)C=C)C2)cs1` [ZNL-0056] was tested, and the Kd (MKK7) was 36 nM, the “prevention of EGFR binding to osimertinib-biotin target-engagement probe” value (EGFR) was “dose-dependent manner” and the IC50 (ITK) was 7.81 nM. For the same molecule, the IC50 (BTK) was 1.13 nM, the IC50 (JAK3) was 5.79 nM and the IC50 (EGFR L858R) was 6.21 nM. It also gave an IC50 (MEK5) of 2500 nM.
